Literature values in patent US20250352557A1, “COMPOSITIONS FOR PERITONEAL DRUG DELIVERY AND METHODS OF USE THEREOF” (Viramal Limited, priority 2023, published 2025).

Columns and labels:
[1] = vaginal administration; previously refractory patients
[2] = not given; remark: listed apart in the source

| Bioavailability with intake of foods high in fat (oral) | Time at which peak-plasma concentrations are reached (oral (Danatrol form)) [h] | Peak-plasma concentrations (oral (Danatrol form), absorbed from the gastrointestinal tract) [ng/mL] | Log P [2] | Compound | Average consumption of pain relief tablets (e.g., naproxen) reduced by [1] [%] | Patient satisfaction [1] [%] |
| --- | --- | --- | --- | --- | --- | --- |
| tripled | 2 to 3 | 50 to 80 | – | C#C[C@]1(O)CC[C@H]2[C@@H]3CCC4=Cc5oncc5C[C@]4(C)[C@H]3CC[C@@]21C [Danazol, 17α-Pregna-2,4-dien-20-yno [2,3-d]-isoxazol-17-ol] | 60 | 80 |
| – | – | – | 3.82 | CC(=O)[C@H]1CC[C@H]2[C@@H]3CCC4=CC(=O)CC[C@]4(C)[C@H]3CC[C@]12C [progesterone] | – | – |
